Measured values: publication PMC3898987 (Bioorganic & Medicinal Chemistry, 2013)
Substitutions are numbered along the chain they refer to.

What was measured:
5-HT3A receptor Y73F = biological target: T1, 5-HT3A receptor Y73F (Homo sapiens, UniProt P46098, Y68F); assay: FlexStation membrane potential dye functional assay, HEK293 cells; assay type: cell-based; set-up: expressed in transfected cells; host or cells: HEK293; conditions: 5-HT3A Y73F
T1 sequence (P46098 24-478 Y68F): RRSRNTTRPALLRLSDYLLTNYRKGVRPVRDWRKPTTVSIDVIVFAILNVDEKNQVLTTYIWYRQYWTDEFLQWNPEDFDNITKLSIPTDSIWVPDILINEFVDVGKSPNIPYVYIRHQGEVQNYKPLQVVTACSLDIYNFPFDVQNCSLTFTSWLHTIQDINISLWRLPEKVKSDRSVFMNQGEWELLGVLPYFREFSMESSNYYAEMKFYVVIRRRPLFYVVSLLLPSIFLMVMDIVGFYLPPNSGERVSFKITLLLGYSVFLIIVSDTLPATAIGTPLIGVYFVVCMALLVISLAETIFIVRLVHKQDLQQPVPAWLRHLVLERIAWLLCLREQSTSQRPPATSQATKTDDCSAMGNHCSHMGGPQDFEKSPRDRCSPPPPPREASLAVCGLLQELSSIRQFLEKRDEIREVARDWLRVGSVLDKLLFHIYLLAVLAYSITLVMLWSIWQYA
Description: (§1) Human embryonic kidney (HEK) 293 cells were cultured on 90 mm tissue culture plates at 37 °C and 7% CO2 in a humidified atmosphere. They were grown in DMEM:F12 (Dulbecco’s Modified Eagle’s Medium/Nutrient Mix F12 (1:1)) with GlutaMAX I™ containing 10% fetal calf serum and passaged when confluent. […] For FlexStation assays, transfected cells were plated on 96-well plates and incubated 1–2 days before assay.
(§2) Fluorometric studies were undertaken using a FlexStation® (Molecular Devices, Sunnyvale, CA, USA) as previously described.[11]
(§3) Fluorescence was measured every 2 s for 200 s. […] Concentration–response and inhibition curves were obtained for each mutant, and the fluorescence values were normalized to the maximal response.

5-HT3A receptor F130A = biological target: T2, 5-HT3A receptor F130A (Homo sapiens, UniProt P46098, F125A); assay: as above; assay type: cell-based; set-up: expressed in transfected cells; host or cells: HEK293; conditions: 5-HT3A F130A
T2 sequence (P46098 24-478 F125A): T1 sequence (P46098 24-478 Y68F) with F45Y, F102A
Description: as §1, §2, §3

5-HT3A receptor Y73A = biological target: T3, 5-HT3A receptor Y73A (Homo sapiens, UniProt P46098, Y68A); assay: as above; assay type: cell-based; set-up: expressed in transfected cells; host or cells: HEK293; conditions: inhibition of 5-HT (EC50 concentration) response, 45 min preincubation, 5-HT3A Y73A
T3 sequence (P46098 24-478 Y68A): T1 sequence (P46098 24-478 Y68F) with F45A
Description: For FlexStation assays, transfected cells were plated on 96-well plates and incubated 1–2 days before assay.
as §2, §3

[1] = biological target: T4, 5-HT3AB receptor, 5-HT3B subunit F130A (Homo sapiens, UniProt O95264+P46098, F123A); assay: radioligand saturation binding, transfected HEK293 membranes
T4 sequence (P46098 24-478): T1 sequence (P46098 24-478 Y68F) with F45Y
T4 sequence (O95264 22-441 F123A): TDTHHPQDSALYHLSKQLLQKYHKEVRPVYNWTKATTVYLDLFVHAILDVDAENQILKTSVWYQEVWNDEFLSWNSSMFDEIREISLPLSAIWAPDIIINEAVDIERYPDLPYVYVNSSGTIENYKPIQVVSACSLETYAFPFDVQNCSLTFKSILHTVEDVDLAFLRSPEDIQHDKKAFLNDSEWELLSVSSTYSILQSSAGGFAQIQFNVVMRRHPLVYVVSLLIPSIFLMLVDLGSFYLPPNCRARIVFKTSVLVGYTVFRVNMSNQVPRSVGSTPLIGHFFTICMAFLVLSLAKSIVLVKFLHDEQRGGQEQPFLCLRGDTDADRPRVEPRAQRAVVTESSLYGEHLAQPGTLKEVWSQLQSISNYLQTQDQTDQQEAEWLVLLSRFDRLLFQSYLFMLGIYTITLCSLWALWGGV
Description: Human embryonic kidney (HEK) 293 cells were cultured on 90 mm tissue culture plates at 37 °C and 7% CO2 in a humidified atmosphere. They were grown in DMEM:F12 (Dulbecco’s Modified Eagle’s Medium/Nutrient Mix F12 (1:1)) with GlutaMAX I™ containing 10% fetal calf serum and passaged when confluent. For radioligand binding studies, cells in 90 mm dishes were transfected at 60–70% confluency using polyethyleneimine and incubated for 3–4 days before use. For FlexStation assays, transfected cells were plated on 96-well plates and incubated 1–2 days before assay. […]
Eight-point binding assays were performed to produce saturation binding curves. […] Radioactive counts were measured using a Beckman LS6000SC liquid scintillation counter (Fullerton, California, USA).
Data were analyzed by iterative curve fitting using GraphPad Prism v5 (San Diego, CA) according to the following equation: B=Bmax[L]^n/kdn+[L]^n where B is the amount of bound radioligand, Bmax is the maximum specific binding at equilibrium, [L] is the concentration of radioligand, Kd is the equilibrium dissociation constant of the radioligand, and n is the Hill coefficient.

[2] = inhibition of 5-HT (EC50 concentration) response, 45 min preincubation

With `NCCc1c[nH]c2ccc(O)cc12` [5-HT, serotonin] the “Hill Coefficient” value (5-HT3A receptor Y73F; 5-HT concentration-response) was 2.3 ± 0.3 and the “Hill Coefficient” value (5-HT3A receptor F130A; 5-HT concentration-response) was 1.5 ± 0.2.

`O=C1c2cccc3c2[C@H](CCC3)CN1[C@@H]1CN2CCC1CC2` [Palonosetron] showed an IC50 (5-HT3A receptor Y73A) of 13.1 ± 1.6 nM, an IC50 (5-HT3A receptor Y73F; [2]) of 1.23 ± 0.15 nM and an IC50 (5-HT3A receptor F130A; [2]) of 4.4 ± 1.8 nM. The Kd ([1]; [3H]-palonosetron saturation, 5-HT3AB with 5-HT3B F130A, 4 °C, 24 h) was 0.48 ± 0.03 nM and the “increase in Kd compared to wild type” value ([1]; [3H]palonosetron, F130A (5-HT3B) containing heteromers vs WT 5-HT3AB) was “twofold”.
